According to PubChem BioAssay AID2060498 (Molecular Pharmacology Branch, DTP, NCI, 2025):

Test system: 171881-019-R-J1-PDC tumor spheroids, viability
Assay: Anticancer human tumor 171881-019-R-J1-PDC patient-derived invasive breast carcinoma cell line growth inhibition [GQUAD]
Conditions: spheroids with HUVEC and MSC; for IC50: curve of first compound; for viability, T/C: stronger effect = lower value
Summary of the method: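 Viability of tumor cells grown as complex spheroids with endothelial and stromal cells, exposed to drug combinations. Top concentration at or near clinical Cmax (else 10 microM), diluted in half-log increments.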

[1] = second compound 0.0316 µM, first compound 0.0316 µM
[2] = second compound 0.0316 µM, first compound 0.1 µM
[3] = second compound 0.0316 µM, first compound 0.316 µM
[4] = second compound 0.0316 µM, first compound 1 µM
[5] = second compound 0.0316 µM, first compound 3.16 µM
[6] = second compound 0.0316 µM, first compound 10 µM
[7] = second compound 0.1 µM, first compound 0.0316 µM
[8] = second compound 0.1 µM, first compound 0.1 µM
[9] = second compound 0.1 µM, first compound 0.316 µM
[10] = second compound 0.1 µM, first compound 1 µM
[11] = second compound 0.1 µM, first compound 3.16 µM
[12] = second compound 0.1 µM, first compound 10 µM
[13] = second compound 0.316 µM, first compound 0.0316 µM
[14] = second compound 0.316 µM, first compound 0.1 µM
[15] = second compound 0.316 µM, first compound 0.316 µM
[16] = second compound 0.316 µM, first compound 1 µM
[17] = second compound 0.316 µM, first compound 3.16 µM
[18] = second compound 0.316 µM, first compound 10 µM
[19] = second compound 1 µM, first compound 0.0316 µM
[20] = second compound 1 µM, first compound 0.1 µM
[21] = second compound 1 µM, first compound 0.316 µM
[22] = second compound 1 µM, first compound 1 µM
[23] = second compound 1 µM, first compound 3.16 µM
[24] = second compound 1 µM, first compound 10 µM
[25] = second compound 3.16 µM, first compound 0.0316 µM
[26] = second compound 3.16 µM, first compound 0.1 µM
[27] = second compound 3.16 µM, first compound 0.316 µM
[28] = second compound 3.16 µM, first compound 1 µM
[29] = second compound 3.16 µM, first compound 3.16 µM
[30] = second compound 3.16 µM, first compound 10 µM
[31] = second compound 10 µM, first compound 0.0316 µM
[32] = second compound 10 µM, first compound 0.1 µM
[33] = second compound 10 µM, first compound 0.316 µM
[34] = second compound 10 µM, first compound 1 µM
[35] = second compound 10 µM, first compound 3.16 µM
[36] = second compound 10 µM, first compound 10 µM
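Wherever viability, T/C is given: 100% = DMSO vehicle control viability.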

In the case of `CC1COCCN1c1cc(C2(O)CC3CCC(C2)O3)c2cnn(-c3ccn[nH]3)c2n1` (centres undefined) + Cc1[nH]c2ccc(F)cc2c1-c1nc2c3cccnc3c3ncccc3c2[nH]1, the IC50 (second compound 0.0316 µM) is reported as 34.5 nM, the IC50 (second compound 0.1 µM) is reported as 38.1 nM and the IC50 (second compound 0.316 µM) is reported as 33.8 nM. For the same compound, the IC50 (second compound 1 µM) was less than 31.6 nM, the IC50 (second compound 3.16 µM) was less than 31.6 nM and the IC50 (second compound 10 µM) was less than 31.6 nM. The viability, T/C [1] was 52.8%, the viability, T/C [2] was 20.5% and the viability, T/C [3] was 10.3%. It also gave a viability, T/C [4] of 5.52%, a viability, T/C [5] of 4.37% and a viability, T/C [6] of 4.08%. For the same compound, the viability, T/C [7] was 55.6%, the viability, T/C [8] was 20.6% and the viability, T/C [9] was 9.69%. For the same compound, the viability, T/C [10] was 5.6%, the viability, T/C [11] was 3.81% and the viability, T/C [12] was 3.56%. For the same compound, the viability, T/C [13] was 52.1%, the viability, T/C [14] was 20.3% and the viability, T/C [15] was 9.82%. It also gave a viability, T/C [16] of 5.18%, a viability, T/C [17] of 4.67% and a viability, T/C [18] of 3.78%. It also gave a viability, T/C [19] of 36.9%, a viability, T/C [20] of 15.5% and a viability, T/C [21] of 9.46%. For the same compound, the viability, T/C [22] was 5.53%, the viability, T/C [23] was 5.14% and the viability, T/C [24] was 3.53%. The viability, T/C [25] was 15.7%, the viability, T/C [26] was 10.5% and the viability, T/C [27] was 6.92%. For the same compound, the viability, T/C [28] was 4.31%, the viability, T/C [29] was 4.06% and the viability, T/C [30] was 1.96%. It also gave a viability, T/C [31] of 14.8%, a viability, T/C [32] of 12.1% and a viability, T/C [33] of 7.38%. For the same compound, the viability, T/C [34] was 5.1%, the viability, T/C [35] was 4.66% and the viability, T/C [36] was 3.28%.
For `O=C(c1cc(Cc2n[nH]c(=O)c3ccccc23)ccc1F)N1CCN(C(=O)C2CC2)CC1` + Cc1[nH]c2ccc(F)cc2c1-c1nc2c3cccnc3c3ncccc3c2[nH]1, the IC50 (second compound 0.0316 µM) was greater than 10000 nM, the IC50 (second compound 0.1 µM) was greater than 10000 nM and the IC50 (second compound 0.316 µM) was greater than 10000 nM. It also gave an IC50 (second compound 1 µM) greater than 10000 nM, an IC50 (second compound 3.16 µM) of less than 31.6 nM and an IC50 (second compound 10 µM) greater than 10000 nM. It also gave a viability, T/C [1] of 95.7%, a viability, T/C [2] of 105% and a viability, T/C [3] of 102%. It also gave a viability, T/C [4] of 106%, a viability, T/C [5] of 99.3% and a viability, T/C [6] of 89.3%. For the same compound, the viability, T/C [7] was 102%, the viability, T/C [8] was 103% and the viability, T/C [9] was 96.7%. It also gave a viability, T/C [10] of 95.7%, a viability, T/C [11] of 89.1% and a viability, T/C [12] of 80.3%. For the same compound, the viability, T/C [13] was 91.7%, the viability, T/C [14] was 107% and the viability, T/C [15] was 107%. It also gave a viability, T/C [16] of 96.2%, a viability, T/C [17] of 91.6% and a viability, T/C [18] of 81.9%. For the same compound, the viability, T/C [19] was 86.5%, the viability, T/C [20] was 75.6% and the viability, T/C [21] was 91.3%. The viability, T/C [22] was 80.6%, the viability, T/C [23] was 87.2% and the viability, T/C [24] was 78.4%. The viability, T/C [25] was 27.8%, the viability, T/C [26] was 23.5% and the viability, T/C [27] was 24.4%. The viability, T/C [28] was 31.8%, the viability, T/C [29] was 28.9% and the viability, T/C [30] was 25.7%. For the same compound, the viability, T/C [31] was 55.1%, the viability, T/C [32] was 51.2% and the viability, T/C [33] was 57.2%. The viability, T/C [34] was 60.7%, the viability, T/C [35] was 60.5% and the viability, T/C [36] was 49.5%.
